PubChem BioAssay AID330 (DTP/NCI, 2004)
Where “and” joins values, the source holds several entries; their conditions need not be identical. Identical values can stand only once. Toxic doses and inconclusive results are not listed. How the source made its calls: active means survival T/C of 150% or more; inactive means T/C below 125% in these data. Square brackets hold non-standard residues; d marks the D form. Peptide text beside a SMILES is read from it. * marks the point of attachment. ξ: configuration not given here. Cbz = O=C(OCc1ccccc1)*; ξNva = CCCC(N)C(=O)O

System: P388 leukemia ip, CD2F1 mice, survival T/C
Assay: NCI In Vivo Anticancer Drug Screen. Data for tumor model P388 Leukemia (intraperitoneal) in CD2F1 (CDF1) mice
Settings: endpoint: median survival time, higher = longer survival
How it was run: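 Mice carrying the transplanted tumor received test compound or vehicle. Survival was recorded in each group, and the value is the treated-group measurement divided by that of the vehicle-treated control group.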

[1] = dose: 15.0 mg/kg/injection, schedule: Q01DX005 (ip), vehicle: saline with Tween-80
[2] = dose: 30.0 mg/kg/injection, schedule: Q01DX005 (ip), vehicle: saline with Tween-80
[3] = dose: 60.0 mg/kg/injection, schedule: Q01DX005 (ip), vehicle: saline with Tween-80
[4] = dose: 120.0 mg/kg/injection, schedule: Q01DX005 (ip), vehicle: saline with Tween-80
[5] = dose: 240.0 mg/kg/injection, schedule: Q01DX005 (ip), vehicle: saline with Tween-80
[6] = dose: 50.0 mg/kg/injection, schedule: Q01DX009 (ip), vehicle: Klucel (hydroxypropylcellulose) (HPC)
[7] = dose: 100.0 mg/kg/injection, schedule: Q01DX009 (ip), vehicle: Klucel (hydroxypropylcellulose) (HPC)
[8] = dose: 100.0 mg/kg/injection, schedule: Q04DX003 (ip), vehicle: saline with Tween-80
[9] = dose: 200.0 mg/kg/injection, schedule: Q04DX003 (ip), vehicle: saline with Tween-80
[10] = dose: 25.0 mg/kg/injection, schedule: Q01DX009 (ip), vehicle: saline with Tween-80
[11] = dose: 50.0 mg/kg/injection, schedule: Q01DX009 (ip), vehicle: saline with Tween-80
[12] = dose: 100.0 mg/kg/injection, schedule: Q01DX009 (ip), vehicle: saline with Tween-80
[13] = dose: 200.0 mg/kg/injection, schedule: Q01DX009 (ip), vehicle: saline with Tween-80
[14] = dose: 400.0 mg/kg/injection, schedule: Q04DX003 (ip), vehicle: saline with Tween-80
[15] = dose: 6.25 mg/kg/injection, schedule: Q01DX009 (ip), vehicle: saline
[16] = dose: 12.5 mg/kg/injection, schedule: Q01DX009 (ip), vehicle: saline
[17] = dose: 200.0 mg/kg/injection, schedule: Q01DX009 (ip), vehicle: Klucel (hydroxypropylcellulose) (HPC)
[18] = dose: 50.0 mg/kg/injection, schedule: Q01DX009 (ip), vehicle: saline
[19] = dose: 100.0 mg/kg/injection, schedule: Q01DX009 (ip), vehicle: saline
[20] = dose: 200.0 mg/kg/injection, schedule: Q01DX009 (ip), vehicle: saline

Measured: T/C

CC1(c2ccccc2)NC(=O)N(CC(=O)N(c2ccccc2)c2ccccc2)C1=O (configuration not stated)
inactive: dose: 7.5 mg/kg/injection, schedule: Q01DX005 (ip), vehicle: saline with Tween-80 91 % of control | [1] 92 % of control | [2] 92 % of control and 93 % of control | [3] 87 % of control and 88 % of control | [4] 86 % of control | [5] 94 % of control

Cc1ccc(N=C=C(c2ccccc2)c2ccccc2)cc1
inactive: [6] 123 % of control | [7] 119 % of control

CCCCCC(C=O)C(O)(C(F)(F)F)C(F)(F)Cl (configuration not stated)
inactive: dose: 50.0 mg/kg/injection, schedule: Q04DX003 (ip), vehicle: saline with Tween-80 100 % of control | [8] 100 % of control | [9] 109 % of control

CC(NCCCSc1ccccc1)C(O)c1ccc(O)cc1 (configuration not stated)
inactive: [10] 94 % of control | [11] 100 % of control

CC(C)(C)N=C(CCNc1ccccc1Cl)Nc1ccccc1Cl
inactive: [11] 103 % of control | [12] 103 % of control | [13] 86 % of control

O=C(c1ccccc1)C(O)NC(=S)c1ccc(Cl)cc1 (configuration not stated)
inactive: [11] 107 % of control | [12] 113 % of control | [13] 113 % of control

CC(=O)Nc1c(Cl)c(Cl)c2c(c1Cl)Cc1cc(Br)ccc1-2
inactive: [8] 109 % of control

O=S(=O)(OCCCl)c1ccc(F)cc1
inactive: [11] 109 % of control | [12] 101 % of control | [13] 100 % of control

Cc1ccc(Cl)cc1NC(=O)COc1ccc(Cl)cc1Cl
inactive: [8] 100 % of control | [9] 100 % of control | [14] 90 % of control

CCCC(NC(=O)OCc1ccccc1)C(=O)NCC(N)=O (configuration not stated) (Cbz-[ξNva]-Gly-NH2)
inactive: dose: 50.0 mg/kg/injection, schedule: Q01DX005 (ip), vehicle: Klucel (hydroxypropylcellulose) (HPC) 103 % of control | dose: 100.0 mg/kg/injection, schedule: Q01DX005 (ip), vehicle: Klucel (hydroxypropylcellulose) (HPC) 100 % of control | dose: 200.0 mg/kg/injection, schedule: Q01DX005 (ip), vehicle: Klucel (hydroxypropylcellulose) (HPC) 100 % of control

NC(C(=O)O)C(O)c1ccc2c(c1)OCO2 (configuration not stated)
inactive: [8] 100 % of control | [9] 100 % of control | [14] 100 % of control

Nc1ccc(O)cc1O
inactive: dose: 1.56 mg/kg/injection, schedule: Q01DX009 (ip), vehicle: saline 98 % of control | dose: 3.12 mg/kg/injection, schedule: Q01DX009 (ip), vehicle: saline 109 % of control | [15] 106 % of control | [16] 118 % of control and 119 % of control

NC(=O)C[C@H](NP(=S)(c1ccccc1)c1ccccc1)C(=O)O
inactive: [6] 102 % of control | [7] 98 % of control | [17] 110 % of control

CN(C)c1ccc(C=C2C(=O)N(c3ccccc3)C(=S)N(c3ccccc3)C2=O)cc1
inactive: dose: 60.0 mg/kg/injection, schedule: Q01DX005 (ip), vehicle: Klucel (hydroxypropylcellulose) (HPC) 90 % of control | dose: 120.0 mg/kg/injection, schedule: Q01DX005 (ip), vehicle: Klucel (hydroxypropylcellulose) (HPC) 92 % of control | dose: 240.0 mg/kg/injection, schedule: Q01DX005 (ip), vehicle: Klucel (hydroxypropylcellulose) (HPC) 92 % of control

CNc1nc2c(s1)c1c(O)c3c(O)c(C)c4c(c32)C(=O)C(C)(O/C=C/C(OC)C(C)C(OC(C)=O)C(C)C(O)C(C)C(O)C(C)/C=C/C=C(/C)C(=O)N1)O4 (configuration not stated)
inactive: dose: 25.0 mg/kg/injection, schedule: Q01DX009 (ip), vehicle: Klucel (hydroxypropylcellulose) (HPC) 98 % of control | [6] 100 % of control | [7] 106 % of control | [17] 100 % of control

CC(C)(C)c1cc(-n2nc3ccccc3[n+]2[O-])c(O)c(C(C)(C)C)c1
inactive: [3] 100 % of control | [4] 94 % of control | [5] 91 % of control

COC(=O)/C=C1\C2OC(C1C(=O)OC)C(O)C2O (configuration not stated)
inactive: dose: 50.0 mg/kg/injection, schedule: Q01DX005 (ip), vehicle: saline with Tween-80 100 % of control | dose: 100.0 mg/kg/injection, schedule: Q01DX005 (ip), vehicle: saline with Tween-80 97 % of control | dose: 200.0 mg/kg/injection, schedule: Q01DX005 (ip), vehicle: saline with Tween-80 90 % of control

C/C=C/C(O)CC1CCCCN1 (configuration not stated)
inactive: dose: 100.0 mg/kg/injection, schedule: Q04DX003 (ip), vehicle: saline 100 % of control

COC(=O)c1cccc2c(N)c(N)cc(C(=O)OC)c12
inactive: [3] 100 % of control | [4] 104 % of control | [5] 106 % of control

CC1=CC2=C(C=O)C(=O)[C@](C)(O)[C@@H](O)C2=CO1
inactive: dose: 12.5 mg/kg/injection, schedule: Q01DX009 (ip), vehicle: saline with Tween-80 109 % of control | [10] 118 % of control

O=C1CCC2C(=O)OCC12 (configuration not stated)
inactive: dose: 50.0 mg/kg/injection, schedule: Q04DX002 (ip), vehicle: saline 99 % of control | dose: 100.0 mg/kg/injection, schedule: Q04DX002 (ip), vehicle: saline 101 % of control | dose: 200.0 mg/kg/injection, schedule: Q04DX002 (ip), vehicle: saline 94 % of control | dose: 400.0 mg/kg/injection, schedule: Q04DX002 (ip), vehicle: saline 100 % of control

Cc1onc(-c2ccccc2)c1C(=O)c1ccccc1
inactive: [18] 99 % of control | [19] 100 % of control | [20] 99 % of control

CCOC(=O)C1=C(c2ccccc2)N=c2ccccc2=S1C (configuration not stated)
inactive: [1] 96 % of control | [2] 99 % of control | [3] 98 % of control and 94 % of control

CC[C@@H]1CN2CCc3c([nH]c4ccccc34)[C@@](C(=O)OC)(c3cc4c(cc3OC)N(C)[C@H]3[C@@](O)(C(=O)OC)[C@H](OC(C)=O)[C@]5(CC)C=CCN6CC[C@]43[C@@H]65)C[C@H](C2)C1=O
inactive: dose: 1.0 mg/kg/injection, schedule: Q01DX001 (ip), vehicle: water 104 % of control | dose: 2.0 mg/kg/injection, schedule: Q01DX001 (ip), vehicle: water 108 % of control | dose: 4.0 mg/kg/injection, schedule: Q01DX001 (ip), vehicle: distilled water + Tween-80 119 % of control | dose: 4.0 mg/kg/injection, schedule: Q01DX001 (ip), vehicle: water 120 % of control | dose: 8.0 mg/kg/injection, schedule: Q01DX001 (ip), vehicle: distilled water + Tween-80 117 % of control | dose: 16.0 mg/kg/injection, schedule: Q01DX001 (ip), vehicle: distilled water + Tween-80 119 % of control

N#CC(C(=O)CCC(=O)NCCc1ccccc1)c1nc2ccccc2s1 (configuration not stated)
inactive: [3] 103 % of control | [4] 100 % of control | [5] 100 % of control

CC(=O)NCNC(C)=O
inactive: [18] 100 % of control | [19] 97 % of control | [20] 108 % of control

CC1(OC(=O)c2ccc([N+](=O)[O-])cc2)CC(C)(C)[N+]([O-])=N1 (configuration not stated)
inactive: dose: 12.5 mg/kg/injection, schedule: Q01DX009 (ip), vehicle: other 102 % of control | dose: 25.0 mg/kg/injection, schedule: Q01DX009 (ip), vehicle: other 102 % of control | dose: 50.0 mg/kg/injection, schedule: Q01DX009 (ip), vehicle: other 109 % of control | dose: 100.0 mg/kg/injection, schedule: Q01DX009 (ip), vehicle: other 100 % of control | dose: 200.0 mg/kg/injection, schedule: Q01DX009 (ip), vehicle: other 94 % of control

Oc1cc2c(cc1C(c1ccc(F)cc1)N1CCOCC1)OCO2 (configuration not stated)
inactive: [3] 117 % of control | [4] 102 % of control | [5] 108 % of control

CCCCCCCCCCCCCCCCS(=O)(=O)c1ccc(S(=O)(=O)N/N=c2/sc3ccccc3n2C)cc1C(=O)O
inactive: [15] 103 % of control | [16] 97 % of control | dose: 25.0 mg/kg/injection, schedule: Q01DX009 (ip), vehicle: saline 94 % of control | [19] 88 % of control

C=C(C)C(=O)OC1CCC2(C)C(CCC3C2CCC2(C)C(c4ccc(=O)oc4)CC4OC432)C1 (configuration not stated)
inactive: dose: 1.25 mg/kg/injection, schedule: Q01DX009 (ip), vehicle: saline with Tween-80 98 % of control | dose: 2.5 mg/kg/injection, schedule: Q01DX009 (ip), vehicle: saline with Tween-80 100 % of control | dose: 5.0 mg/kg/injection, schedule: Q01DX009 (ip), vehicle: saline with Tween-80 122 % of control | dose: 10.0 mg/kg/injection, schedule: Q01DX009 (ip), vehicle: saline with Tween-80 106 % of control | dose: 20.0 mg/kg/injection, schedule: Q01DX009 (ip), vehicle: saline with Tween-80 100 % of control
